Test results as given in patent US6441020B1, “Protein kinase C modulators. W” (priority 1995, dated 2002).

What was measured:
[1] = tested on: protein kinase C preparation; settings: Irie and Koshimizu 1988; cited from earlier work
Raji cells = settings: Irie and Koshimizu 1988; cited from earlier work
human protein kinase Cθ = target: T1, human protein kinase Cθ (Homo sapiens, UniProt Q04759); test: [3H]PDBu receptor binding assay, protein kinase C θ
T1 construct: Successful full-length expression of each isotype was confirmed by immunoblotting; FLAG (from vector pFlag-Mac); made in house; host or cells: E. coli strain DH5
T1 sequence (Q04759 whole entry): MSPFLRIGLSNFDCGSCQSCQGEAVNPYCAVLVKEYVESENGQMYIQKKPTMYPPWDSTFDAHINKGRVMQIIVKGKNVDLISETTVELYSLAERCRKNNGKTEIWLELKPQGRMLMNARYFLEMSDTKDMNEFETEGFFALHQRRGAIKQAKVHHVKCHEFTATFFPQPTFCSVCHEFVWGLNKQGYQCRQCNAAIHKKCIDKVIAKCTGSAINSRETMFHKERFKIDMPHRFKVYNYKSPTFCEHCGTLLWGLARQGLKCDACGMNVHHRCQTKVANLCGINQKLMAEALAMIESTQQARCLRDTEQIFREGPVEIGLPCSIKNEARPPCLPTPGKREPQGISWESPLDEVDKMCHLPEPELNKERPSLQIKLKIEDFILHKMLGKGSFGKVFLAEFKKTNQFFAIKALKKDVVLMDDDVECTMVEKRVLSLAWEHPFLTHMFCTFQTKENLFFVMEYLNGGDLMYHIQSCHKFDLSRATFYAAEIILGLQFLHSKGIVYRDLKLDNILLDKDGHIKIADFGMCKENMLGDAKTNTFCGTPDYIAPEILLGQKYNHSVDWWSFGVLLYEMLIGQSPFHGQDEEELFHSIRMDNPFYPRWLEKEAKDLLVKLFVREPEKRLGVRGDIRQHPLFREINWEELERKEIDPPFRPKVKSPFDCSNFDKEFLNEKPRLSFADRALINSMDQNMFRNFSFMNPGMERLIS
Source text: (§1) Recombinant protein kinase Cα, β1, γ, ε, η, θ and μ were obtained as crude cell preparations as follows. The protein kinase C isotypes were expressed in Sf9 or Sf158 insect cells using recombinant baculoviruses as described (Patel and Stabel, 1989; Stabel, Schaap and Parker, 1991; Johannes et al., 1994). In the case of the θ isotype, human protein kinase Cθ was cloned in the plasmid vector pFlag-Mac and the protein expressed in E. coli strain DH5. Successful full-length expression of each isotype was confirmed by immunoblotting of infected insect cell or E. coli lysates with isotype-specific antibodies (Marais and Parker, 1989) as described (Liyange et al, 1992). Sf9 or Sf158 cells were infected with recombinant baculovirus isolates containing the specified protein kinase C isotype cDNAs (Parker et al, 1986; Coussens et al, 1986) or a non-protein kinase C-related adenovirus E1 a gene (Patel and Jones, 1990). After 3 days infected and uninfected control cells were collected by centrifugation at 600 RCF for 15 min and frozen. […]
(§2) The assay was carried out in 0.5 mL polypropylene centrifuge tubes. […] Specific and nonspecific binding values were then determined as described (Driedger and Blumberg, 1980b). […]

protein kinase C μ = target: T2, protein kinase C μ (Homo sapiens, UniProt Q15139); test: [3H]PDBu receptor binding assay, protein kinase C μ
T2 construct: Successful full-length expression of each isotype was confirmed by immunoblotting; made in house; host or cells: Sf9 or Sf158 insect cells (baculovirus)
T2 sequence (Q15139 1-912): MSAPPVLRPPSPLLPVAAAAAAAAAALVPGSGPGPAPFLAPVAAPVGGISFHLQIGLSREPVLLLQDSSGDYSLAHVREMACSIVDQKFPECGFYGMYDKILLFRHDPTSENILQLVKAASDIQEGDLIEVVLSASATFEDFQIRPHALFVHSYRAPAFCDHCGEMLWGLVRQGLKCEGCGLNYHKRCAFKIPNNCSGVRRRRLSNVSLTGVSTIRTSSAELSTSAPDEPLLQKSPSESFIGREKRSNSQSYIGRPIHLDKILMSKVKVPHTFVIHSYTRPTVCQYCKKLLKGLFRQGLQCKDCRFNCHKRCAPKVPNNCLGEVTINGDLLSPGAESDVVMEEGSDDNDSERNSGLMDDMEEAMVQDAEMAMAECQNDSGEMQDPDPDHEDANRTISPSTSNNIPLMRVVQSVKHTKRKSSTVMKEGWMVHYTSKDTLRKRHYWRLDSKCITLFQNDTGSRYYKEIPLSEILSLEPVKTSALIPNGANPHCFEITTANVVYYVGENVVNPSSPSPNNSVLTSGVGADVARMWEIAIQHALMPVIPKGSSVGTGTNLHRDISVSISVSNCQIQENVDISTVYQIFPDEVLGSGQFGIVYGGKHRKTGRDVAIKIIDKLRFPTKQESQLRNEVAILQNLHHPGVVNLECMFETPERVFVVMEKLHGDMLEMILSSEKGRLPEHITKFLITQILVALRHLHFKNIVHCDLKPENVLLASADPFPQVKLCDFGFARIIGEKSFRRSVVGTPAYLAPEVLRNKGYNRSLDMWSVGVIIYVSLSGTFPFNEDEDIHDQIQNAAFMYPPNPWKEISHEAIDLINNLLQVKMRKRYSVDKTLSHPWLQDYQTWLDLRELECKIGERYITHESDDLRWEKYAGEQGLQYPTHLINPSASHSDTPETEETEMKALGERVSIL
Source text: as §1, §2

protein kinase C γ = target: T3, protein kinase C γ (Bos taurus, UniProt P05128); test: [3H]PDBu receptor binding assay, protein kinase C γ
T3 construct: Successful full-length expression of each isotype was confirmed by immunoblotting; made in house; host or cells: Sf9 or Sf158 insect cells (baculovirus)
Source text: as §1, §2

protein kinase Cα = target: T4, protein kinase Cα (Bos taurus, UniProt P04409); test: [3H]PDBu receptor binding assay, protein kinase C α
T4 construct: Successful full-length expression of each isotype was confirmed by immunoblotting; made in house; host or cells: Sf9 or Sf158 insect cells (baculovirus)
Source text: as §1, §2

[2] = tested on: phorbol 12-myristate 13-acetate induced ear inflammation/erythema; test: Mouse ear anti-inflammatory test against phorbol 12-myristate 13-acetate; type: in vivo, mice
Protocol: Method: A stock solution of 300 pmoles of the standard inflammatory compound phorbol 12-myristate 13-acetate per 5 μL acetone was prepared. This solution was used to prepare ten-fold dilutions of N^1,14-O-digeranyl-(9S,12S)-indolactam V, prepared as in Example 8, covering concentrations of the latter ranging from 3,500 to 350,000 pmoles per 5 μL.

protein kinase C δ = target: T5, protein kinase C δ (Homo sapiens, UniProt Q05655); test: [3H]PDBu receptor binding assay, protein kinase C δ
T5 construct: made in house
T5 sequence (Q05655 whole entry): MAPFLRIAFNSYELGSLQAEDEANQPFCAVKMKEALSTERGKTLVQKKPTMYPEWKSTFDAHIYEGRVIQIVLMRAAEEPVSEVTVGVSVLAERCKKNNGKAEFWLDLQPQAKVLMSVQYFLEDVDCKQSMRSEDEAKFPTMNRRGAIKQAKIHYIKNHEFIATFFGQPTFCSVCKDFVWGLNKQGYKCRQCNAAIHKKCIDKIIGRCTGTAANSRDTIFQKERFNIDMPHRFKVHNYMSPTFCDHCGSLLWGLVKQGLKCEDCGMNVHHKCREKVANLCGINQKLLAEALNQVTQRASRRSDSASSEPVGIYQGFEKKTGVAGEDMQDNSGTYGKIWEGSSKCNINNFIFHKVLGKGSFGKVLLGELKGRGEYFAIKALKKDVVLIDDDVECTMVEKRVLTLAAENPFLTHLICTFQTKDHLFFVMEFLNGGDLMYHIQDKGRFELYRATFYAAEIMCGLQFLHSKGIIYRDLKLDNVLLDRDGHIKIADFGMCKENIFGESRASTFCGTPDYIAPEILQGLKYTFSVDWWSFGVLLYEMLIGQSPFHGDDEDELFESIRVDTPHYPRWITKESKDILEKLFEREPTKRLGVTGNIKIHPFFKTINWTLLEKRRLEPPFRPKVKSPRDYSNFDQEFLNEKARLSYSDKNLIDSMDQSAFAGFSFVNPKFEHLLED

protein kinase C η = target: T6, protein kinase C η (Homo sapiens, UniProt P24723); test: [3H]PDBu receptor binding assay, protein kinase C η
T6 construct: Successful full-length expression of each isotype was confirmed by immunoblotting; made in house; host or cells: Sf9 or Sf158 insect cells (baculovirus)
T6 sequence (P24723 whole entry): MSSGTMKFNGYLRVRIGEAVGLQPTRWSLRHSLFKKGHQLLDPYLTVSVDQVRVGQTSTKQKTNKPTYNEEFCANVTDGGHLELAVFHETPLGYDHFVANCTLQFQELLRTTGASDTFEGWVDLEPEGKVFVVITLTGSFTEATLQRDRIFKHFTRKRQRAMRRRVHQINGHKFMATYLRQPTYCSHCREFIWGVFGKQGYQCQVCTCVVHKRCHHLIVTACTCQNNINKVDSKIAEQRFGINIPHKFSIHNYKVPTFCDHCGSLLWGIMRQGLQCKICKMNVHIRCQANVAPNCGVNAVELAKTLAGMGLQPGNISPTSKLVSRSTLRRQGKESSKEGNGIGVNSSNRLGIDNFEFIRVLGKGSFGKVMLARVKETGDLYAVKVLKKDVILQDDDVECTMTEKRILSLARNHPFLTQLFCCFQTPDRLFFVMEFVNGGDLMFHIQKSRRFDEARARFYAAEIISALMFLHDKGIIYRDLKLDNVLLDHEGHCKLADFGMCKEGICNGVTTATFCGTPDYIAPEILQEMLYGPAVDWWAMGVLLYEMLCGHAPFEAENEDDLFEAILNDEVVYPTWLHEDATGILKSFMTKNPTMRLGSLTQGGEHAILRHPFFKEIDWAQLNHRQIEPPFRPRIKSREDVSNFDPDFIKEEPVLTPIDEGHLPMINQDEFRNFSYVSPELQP
Source text: as §1, §2

protein kinase C ε = target: T7, protein kinase C ε (Homo sapiens, UniProt Q02156); test: [3H]PDBu receptor binding assay, protein kinase C ε
T7 construct: Successful full-length expression of each isotype was confirmed by immunoblotting; made in house; host or cells: Sf9 or Sf158 insect cells (baculovirus)
T7 sequence (Q02156 1-737): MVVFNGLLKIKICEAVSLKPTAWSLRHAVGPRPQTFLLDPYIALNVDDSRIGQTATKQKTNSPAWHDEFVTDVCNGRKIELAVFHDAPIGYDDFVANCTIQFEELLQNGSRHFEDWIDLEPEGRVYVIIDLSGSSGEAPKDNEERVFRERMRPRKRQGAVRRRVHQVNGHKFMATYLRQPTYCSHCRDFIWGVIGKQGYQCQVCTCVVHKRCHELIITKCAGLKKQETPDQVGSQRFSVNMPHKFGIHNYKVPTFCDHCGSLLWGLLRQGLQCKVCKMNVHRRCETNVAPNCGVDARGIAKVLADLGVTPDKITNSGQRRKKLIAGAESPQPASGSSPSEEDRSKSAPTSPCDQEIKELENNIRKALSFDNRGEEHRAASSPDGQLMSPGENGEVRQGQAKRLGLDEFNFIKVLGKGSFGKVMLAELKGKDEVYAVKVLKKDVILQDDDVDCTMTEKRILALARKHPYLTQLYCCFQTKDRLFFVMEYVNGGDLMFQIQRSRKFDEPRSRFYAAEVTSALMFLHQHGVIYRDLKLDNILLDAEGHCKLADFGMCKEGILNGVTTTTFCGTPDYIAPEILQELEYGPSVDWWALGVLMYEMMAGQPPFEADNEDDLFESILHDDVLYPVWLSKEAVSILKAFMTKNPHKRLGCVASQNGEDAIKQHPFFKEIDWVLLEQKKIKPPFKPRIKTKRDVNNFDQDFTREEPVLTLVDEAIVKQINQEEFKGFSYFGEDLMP
Source text: as §1, §2

## (−)-indolactam V
[1]
  Inhibition of binding of [3H]PMA to a protein kinase C preparation: very active
Raji cells
  Induction of Epstein-Barr virus early antigen: very active

## CC(C)=CCC/C(C)=C/COC[C@@H]1Cc2cn(C/C=C(\C)CCC=C(C)C)c3cccc(c23)N(C)[C@@H](C(C)C)C(=O)N1 [N^1,14-O-digeranyl-(9S,12S)-indolactam V, N^1,14-O-Digeranyl-(9S,12S)-indolactam V]
Human protein kinase Cθ
  Ki: 900 nM
Protein kinase C μ
  Ki: 500 nM
Protein kinase C γ
  Ki: 6500 nM
Protein kinase Cα
  Ki: 5900 nM
[2]; mouse ear, highest concentration (350,000 pmoles per 5 μL), observation to 48 hours
  Persistence of inhibition of PMA induced ear inflammation: inhibition persisting for the duration of the experiment at the highest concentration
[2]; mouse right ear, topical 5 μL acetone, 300 pmoles PMA, test compound 3,500 to 350,000 pmoles per 5 μL, observed 1 to 48 hours
  Inhibition of phorbol 12-myristate 13-acetate induced ear inflammation/erythema: Inhibition of the phorbol 12-myristate 13-acetate induced inflammation was observed at the medium and high concentrations
Protein kinase C δ
  Ki: 900 nM
Protein kinase C η
  Ki: 500 nM
Protein kinase C ε
  Ki: 300 nM

## COC[C@@H]1Cc2c[nH]c3cccc(c23)N(C)[C@@H](C(C)C)C(=O)N1 [(−)-14-O-methylindolactam V, 14-O-methyl-(9S,12S)-indolactam V]
[1]
  Inhibition of binding of [3H]PMA to a protein kinase C preparation: did not measurably inhibit
Raji cells
  Induction of Epstein-Barr virus early antigen: no induction of the Epstein-Barr virus early antigen in Raji cells could be detected

## CCCCOC[C@@H]1Cc2c[nH]c3cccc(c23)N(C)[C@@H](C(C)C)C(=O)N1 [(−)-14-O-butylindolactam V]
Raji cells
  Induction of Epstein-Barr virus early antigen: no induction of the Epstein-Barr virus early antigen in Raji cells could be detected

## CCCCCCOC[C@@H]1Cc2c[nH]c3cccc(c23)N(C)[C@@H](C(C)C)C(=O)N1 [(−)-O-hexylindolactam V, 14-O-hexyl-(9S,12S)-indolactam V]
Raji cells
  Induction of Epstein-Barr virus early antigen: no induction of the Epstein-Barr virus early antigen in Raji cells could be detected
